According to PubChem BioAssay (NCI):
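A five-concentration, 48-hour dose response in 96-well plates underlies each endpoint, interpolated linearly between surrounding concentrations. GI50 = concentration required for 50% inhibition of growth. TGI denotes the concentration required for complete inhibition of growth.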

What was measured:
Experiment in all cases: NCI anticancer screen, dose series, 48 h
SK-MEL-2 melanoma = tested on: SK-MEL-2 melanoma
MALME-3M melanoma = tested on: MALME-3M melanoma
DU-145 prostate = tested on: DU-145 prostate
MCF7 breast = tested on: MCF7 breast
SW-620 colon = tested on: SW-620 colon
UO-31 renal = tested on: UO-31 renal
KM12 colon = tested on: KM12 colon
A549 NSCLC = tested on: A549 NSCLC
HCT-116 colon = tested on: HCT-116 colon
SR leukemia = tested on: SR leukemia
HT29 colon = tested on: HT29 colon
CAKI-1 renal = tested on: CAKI-1 renal
NCI-H23 lung = tested on: NCI-H23 lung
OVCAR-3 ovarian = tested on: OVCAR-3 ovarian
HOP-92 NSCLC = tested on: HOP-92 NSCLC
K-562 leukemia = tested on: K-562 leukemia
HS 578T breast = tested on: HS 578T breast
LOX IMVI melanoma = tested on: LOX IMVI melanoma
OVCAR-8 ovarian = tested on: OVCAR-8 ovarian
UACC-62 melanoma = tested on: UACC-62 melanoma
NCI-H226 lung = tested on: NCI-H226 lung
U251 CNS = tested on: U251 CNS
T-47D breast = tested on: T-47D breast
COLO 205 colon = tested on: COLO 205 colon
HCT-15 colon = tested on: HCT-15 colon
SF-268 CNS = tested on: SF-268 CNS
HL-60(TB) leukemia = tested on: HL-60(TB) leukemia
SF-295 CNS = tested on: SF-295 CNS
CCRF-CEM leukemia = tested on: CCRF-CEM leukemia
NCI-H522 lung = tested on: NCI-H522 lung
786-0 renal = tested on: 786-0 renal
A498 renal = tested on: A498 renal
SNB-75 CNS = tested on: SNB-75 CNS
MDA-MB-231 breast = tested on: MDA-MB-231 breast
HCC-2998 colon = tested on: HCC-2998 colon
OVCAR-4 ovarian = tested on: OVCAR-4 ovarian
TK-10 renal = tested on: TK-10 renal
MOLT-4 leukemia = tested on: MOLT-4 leukemia
RPMI-8226 leukemia = tested on: RPMI-8226 leukemia
MDA-MB-435 = tested on: MDA-MB-435
NCI/ADR-RES ovarian = tested on: NCI/ADR-RES ovarian
UACC-257 melanoma = tested on: UACC-257 melanoma
IGROV1 ovarian = tested on: IGROV1 ovarian
RXF 393 renal = tested on: RXF 393 renal
HOP-62 NSCLC = tested on: HOP-62 NSCLC
EKVX NSCLC = tested on: EKVX NSCLC
SK-MEL-5 melanoma = tested on: SK-MEL-5 melanoma
BT-549 breast = tested on: BT-549 breast
SK-OV-3 ovarian = tested on: SK-OV-3 ovarian
SNB-19 CNS = tested on: SNB-19 CNS
SN12C renal = tested on: SN12C renal
PC-3 prostate = tested on: PC-3 prostate
NCI-H460 lung = tested on: NCI-H460 lung
M14 melanoma = tested on: M14 melanoma

## CC(C)[C@H]1COC(=O)N1[C@@H]1C(=O)N([C@@H](CCC(=O)N2CCN(C3CCCC3)CC2)C(=O)N[C@@H]2CCCc3ccccc32)[C@@H]1/C=C/c1cccc(Br)c1
SK-MEL-2 melanoma
  GI50: 1690 nM
  TGI: 3300 nM
MALME-3M melanoma
  GI50: 1620 nM
  TGI: 3260 nM
DU-145 prostate
  GI50: 1520 nM
  TGI: 7570 nM
MCF7 breast
  GI50: 2090 nM
  TGI: 6330 nM
SW-620 colon
  GI50: 1950 nM
  TGI: 4570 nM
UO-31 renal
  GI50: 1490 nM
  TGI: 3040 nM
KM12 colon
  GI50: 2170 nM
  TGI: 5830 nM
A549 NSCLC
  GI50: 3050 nM
  TGI: 11500 nM
HCT-116 colon
  GI50: 1570 nM
  TGI: 2990 nM
SR leukemia
  GI50: 1870 nM
  TGI: 4710 nM
HT29 colon
  GI50: 1300 nM
  TGI: 2770 nM
CAKI-1 renal
  GI50: 1880 nM
  TGI: 4010 nM
NCI-H23 lung
  GI50: 3460 nM
  TGI: 16600 nM
OVCAR-3 ovarian
  GI50: 1970 nM
  TGI: 3920 nM
HOP-92 NSCLC
  GI50: 1500 nM
  TGI: 4210 nM
K-562 leukemia
  GI50: 2170 nM
  TGI: 4950 nM
HS 578T breast
  GI50: 2500 nM
  TGI: 9310 nM
LOX IMVI melanoma
  GI50: 376 nM
  TGI: 1550 nM
OVCAR-8 ovarian
  GI50: 4120 nM
  TGI: 15400 nM
UACC-62 melanoma
  GI50: 1800 nM
  TGI: 3580 nM
NCI-H226 lung
  GI50: 3490 nM
  TGI: 15600 nM
U251 CNS
  GI50: 1900 nM
  TGI: 3510 nM
T-47D breast
  GI50: 2260 nM
COLO 205 colon
  GI50: 1500 nM
  TGI: 3110 nM
HCT-15 colon
  GI50: 1690 nM
  TGI: 3630 nM
SF-268 CNS
  GI50: 1110 nM
  TGI: 2830 nM
HL-60(TB) leukemia
  GI50: 1910 nM
  TGI: 4900 nM
SF-295 CNS
  GI50: 2150 nM
  TGI: 5050 nM
CCRF-CEM leukemia
  GI50: 2910 nM
  TGI: 8400 nM
NCI-H522 lung
  GI50: 1750 nM
  TGI: 3510 nM
786-0 renal
  GI50: 2010 nM
  TGI: 4690 nM
A498 renal
  GI50: 1400 nM
  TGI: 4040 nM
SNB-75 CNS
  GI50: 1360 nM
  TGI: 3910 nM
MDA-MB-231 breast
  GI50: 1860 nM
  TGI: 3770 nM
HCC-2998 colon
  GI50: 1830 nM
  TGI: 3630 nM
OVCAR-4 ovarian
  GI50: 2790 nM
  TGI: 15000 nM
TK-10 renal
  GI50: 1460 nM
  TGI: 3470 nM
MOLT-4 leukemia
  GI50: 1450 nM
  TGI: 7390 nM
RPMI-8226 leukemia
  GI50: 1470 nM
  TGI: 3930 nM
MDA-MB-435
  GI50: 1260 nM
  TGI: 2650 nM
NCI/ADR-RES ovarian
  GI50: 2980 nM
  TGI: 11800 nM
UACC-257 melanoma
  GI50: 1630 nM
  TGI: 3440 nM
IGROV1 ovarian
  GI50: 1830 nM
  TGI: 5900 nM
RXF 393 renal
  GI50: 1590 nM
  TGI: 3470 nM
HOP-62 NSCLC
  GI50: 1820 nM
  TGI: 4960 nM
EKVX NSCLC
  GI50: 3010 nM
  TGI: 15200 nM
SK-MEL-5 melanoma
  GI50: 1510 nM
  TGI: 2840 nM
BT-549 breast
  GI50: 1460 nM
  TGI: 3110 nM
SK-OV-3 ovarian
  GI50: 2820 nM
  TGI: 8210 nM
SNB-19 CNS
  GI50: 2770 nM
  TGI: 14500 nM
SN12C renal
  GI50: 2270 nM
  TGI: 5510 nM
PC-3 prostate
  GI50: 1800 nM
  TGI: 4280 nM
NCI-H460 lung
  GI50: 1690 nM
  TGI: 3620 nM
M14 melanoma
  GI50: 1800 nM
  TGI: 3460 nM
